Assay results as given in article PMC8288134, “Synthesis, potential antitumor activity, cell cycle analysis, and multitarget mechanisms of novel hydrazones incorporating a 4-methylsulfonylbenzene scaffold: a molecular docking study” (Journal of Enzyme Inhibition and Medicinal Chemistry, 2021).
Read-outs that look alike come from different tables or passages of the source.

Tests used:
ACHN = test: NCI antitumor screen (SRB); assay type: cell-based; settings: Homo sapiens; for inhibition at 10 µM: one dose 10 µM, read-out: Growth inhibition percentage (GI%)
T-47D = test: NCI antitumor screen (SRB); assay type: cell-based; settings: Homo sapiens, T47D; for inhibition at 10 µM: one dose 10 µM, read-out: Growth inhibition percentage (GI%)
[1] = test system: leukaemia tumour cell lines; settings: cited from earlier work; for GI50: read-out: GI50 (subpanel average), reference drugs, ref https://dtp.cancer.gov/dtpstandard/dwindex/index.jsp; for CC50: read-out: LC50 (subpanel average), reference drugs, ref https://dtp.cancer.gov/dtpstandard/dwindex/index.jsp; for TGI (subpanel average): reference drugs, ref https://dtp.cancer.gov/dtpstandard/dwindex/index.jsp
SF-539 = test: NCI antitumor screen (SRB); assay type: cell-based; settings: Homo sapiens; for inhibition at 10 µM: one dose 10 µM, read-out: Growth inhibition percentage (GI%)
COLO 205 = test: NCI antitumor screen (SRB); assay type: cell-based; settings: Homo sapiens; for inhibition at 10 µM: one dose 10 µM, read-out: Growth inhibition percentage (GI%)
HCT-15 = test: NCI antitumor screen (SRB); assay type: cell-based; settings: Homo sapiens; for inhibition at 10 µM: one dose 10 µM, read-out: Growth inhibition percentage (GI%)
[2] = test system: CNS cancer tumour cell lines; settings: cited from earlier work; for GI50: read-out: GI50 (subpanel average), reference drugs, ref https://dtp.cancer.gov/dtpstandard/dwindex/index.jsp; for CC50: read-out: LC50 (subpanel average), reference drugs, ref https://dtp.cancer.gov/dtpstandard/dwindex/index.jsp; for TGI (subpanel average): reference drugs, ref https://dtp.cancer.gov/dtpstandard/dwindex/index.jsp
SNB-19 = test: NCI antitumor screen (SRB); assay type: cell-based; settings: Homo sapiens; for inhibition at 10 µM: one dose 10 µM, read-out: Growth inhibition percentage (GI%)
MCF7 = test: NCI antitumor screen (SRB); assay type: cell-based; settings: Homo sapiens; for inhibition at 10 µM: one dose 10 µM, read-out: Growth inhibition percentage (GI%)
786-0 [3] = test: NCI antitumor screen (SRB); assay type: cell-based; settings: Homo sapiens; for inhibition at 10 µM: one dose 10 µM, read-out: Growth inhibition percentage (GI%)
OVCAR-4 = test: NCI antitumor screen (SRB); assay type: cell-based; settings: Homo sapiens; for inhibition at 10 µM: one dose 10 µM, read-out: Growth inhibition percentage (GI%)
CCRF-CEM = test: NCI antitumor screen (SRB); assay type: cell-based; settings: Homo sapiens; for inhibition at 10 µM: one dose 10 µM, read-out: Growth inhibition percentage (GI%)
HL-60(TB) = test: cells; assay type: cell-based, human; settings: for inhibition at 10 µM: HL-60, HL-60(TB), read-out: Growth inhibition percentage (GI%)
SW-620 = test: NCI antitumor screen (SRB); assay type: cell-based; settings: Homo sapiens; for inhibition at 10 µM: one dose 10 µM, read-out: Growth inhibition percentage (GI%)
RXF 393 = test: NCI antitumor screen (SRB); assay type: cell-based; settings: Homo sapiens; for inhibition at 10 µM: one dose 10 µM, read-out: Growth inhibition percentage (GI%)
HER2 = HER2 (Homo sapiens, UniProt P04626); test: biochemical; settings: read-out: IC50 HER2 Inhibition
Text: (§1) In vitro luminescent EGFR tyrosine kinase assay using Kinase-Glo® MAX as a detection reagent, and In vitro HER2 tyrosine kinase assay using DP‐Glo™ reagent that measures ADP formed from a kinase reaction, this luminescent signal positively correlates with ADP amount and kinase activity. […]
(§2) 2.1.5. EGFR and Her2 assays
(§3) In vitro luminescent EGFR tyrosine kinase assay, using Kinase-Glo® MAX as a detection reagent, and In vitro HER2 tyrosine kinase assay, using DP‐Glo™ reagent that measures the adenosine diphosphate (ADP) formed from a kinase reaction, were performed; this luminescent signal positively correlates with ADP amount and kinase activity. In 17 μl of distilled water, 6 μl of Kinase assay buffer and 1 μl ATP and 1 μl PTK substrate were mixed (master mixture). In every well, mix 20 μl of the master mixture and 5 μl of Inhibitor solution (Test Inhibitor) for positive control, and use 5 μl of the same solution without inhibitor (Inhibitor buffer) as the blank solution; add 20 μl of diluted EGFR or Her2 enzyme and incubate at 30°C for 40 min. Add 50 μl of Kinase-Glo Max reagent to each well, cover the plate with aluminum foil and incubate the plate at room temperature for 15 min. Afterward, measure luminescence using the microplate reader. “Blank” value is subtracted from all readings. […]

EGFR = EGFR (Homo sapiens, UniProt P00533); test: biochemical; settings: read-out: IC50 EGFR Inhibition
Text: as §1, §2, §3

MDA-MB-468 = test: NCI antitumor screen (SRB); assay type: cell-based; settings: Homo sapiens; for inhibition at 10 µM: one dose 10 µM, read-out: Growth inhibition percentage (GI%)
SK-MEL-28 = test: NCI antitumor screen (SRB); assay type: cell-based, human; settings: for inhibition at 10 µM: read-out: Growth inhibition percentage (GI%)
M14 = test system: M14; set-up: method as in https://dtp.cancer.gov/dtpstandard/dwindex/index.jsp; settings: reference drugs, ref https://dtp.cancer.gov/dtpstandard/dwindex/index.jsp; cited from earlier work
OVCAR-8 = test system: OVCAR-8; set-up: method as in https://dtp.cancer.gov/dtpstandard/dwindex/index.jsp; settings: reference drugs, ref https://dtp.cancer.gov/dtpstandard/dwindex/index.jsp; cited from earlier work
MOLT-4 = test system: MOLT-4; set-up: method as in https://dtp.cancer.gov/dtpstandard/dwindex/index.jsp; settings: reference drugs, ref https://dtp.cancer.gov/dtpstandard/dwindex/index.jsp; cited from earlier work
MDA-MB-231/ATCC = test system: MDA-MB-231/ATCC; set-up: method as in https://dtp.cancer.gov/dtpstandard/dwindex/index.jsp; settings: reference drugs, ref https://dtp.cancer.gov/dtpstandard/dwindex/index.jsp; cited from earlier work
UACC-257 = test system: UACC-257; set-up: method as in https://dtp.cancer.gov/dtpstandard/dwindex/index.jsp; settings: reference drugs, ref https://dtp.cancer.gov/dtpstandard/dwindex/index.jsp; cited from earlier work
U251 = test system: U251; set-up: method as in https://dtp.cancer.gov/dtpstandard/dwindex/index.jsp; settings: reference drugs, ref https://dtp.cancer.gov/dtpstandard/dwindex/index.jsp; cited from earlier work
A549/ATCC = test system: A549/ATCC; set-up: method as in https://dtp.cancer.gov/dtpstandard/dwindex/index.jsp; settings: reference drugs, ref https://dtp.cancer.gov/dtpstandard/dwindex/index.jsp; cited from earlier work
HT29 = test system: HT29; set-up: method as in https://dtp.cancer.gov/dtpstandard/dwindex/index.jsp; settings: reference drugs, ref https://dtp.cancer.gov/dtpstandard/dwindex/index.jsp; cited from earlier work
NCI-H23 = test system: NCI-H23; set-up: method as in https://dtp.cancer.gov/dtpstandard/dwindex/index.jsp; settings: reference drugs, ref https://dtp.cancer.gov/dtpstandard/dwindex/index.jsp; cited from earlier work
786-0 [4] = test system: 786-0; set-up: method as in https://dtp.cancer.gov/dtpstandard/dwindex/index.jsp; settings: reference drugs, ref https://dtp.cancer.gov/dtpstandard/dwindex/index.jsp; cited from earlier work
HCC-2998 = test system: HCC-2998; set-up: method as in https://dtp.cancer.gov/dtpstandard/dwindex/index.jsp; settings: reference drugs, ref https://dtp.cancer.gov/dtpstandard/dwindex/index.jsp; cited from earlier work
UO-31 = test system: UO-31; set-up: method as in https://dtp.cancer.gov/dtpstandard/dwindex/index.jsp; settings: reference drugs, ref https://dtp.cancer.gov/dtpstandard/dwindex/index.jsp; cited from earlier work
[5] = Homo sapiens, SK-MEL-28, one dose 10 µM
[6] = Homo sapiens, SK-MEL-28, SK-MEL-28, one dose 10 µM
[7] = five concentrations 0.01-100 µM

Sequence of EGFR (P00533 25-1210): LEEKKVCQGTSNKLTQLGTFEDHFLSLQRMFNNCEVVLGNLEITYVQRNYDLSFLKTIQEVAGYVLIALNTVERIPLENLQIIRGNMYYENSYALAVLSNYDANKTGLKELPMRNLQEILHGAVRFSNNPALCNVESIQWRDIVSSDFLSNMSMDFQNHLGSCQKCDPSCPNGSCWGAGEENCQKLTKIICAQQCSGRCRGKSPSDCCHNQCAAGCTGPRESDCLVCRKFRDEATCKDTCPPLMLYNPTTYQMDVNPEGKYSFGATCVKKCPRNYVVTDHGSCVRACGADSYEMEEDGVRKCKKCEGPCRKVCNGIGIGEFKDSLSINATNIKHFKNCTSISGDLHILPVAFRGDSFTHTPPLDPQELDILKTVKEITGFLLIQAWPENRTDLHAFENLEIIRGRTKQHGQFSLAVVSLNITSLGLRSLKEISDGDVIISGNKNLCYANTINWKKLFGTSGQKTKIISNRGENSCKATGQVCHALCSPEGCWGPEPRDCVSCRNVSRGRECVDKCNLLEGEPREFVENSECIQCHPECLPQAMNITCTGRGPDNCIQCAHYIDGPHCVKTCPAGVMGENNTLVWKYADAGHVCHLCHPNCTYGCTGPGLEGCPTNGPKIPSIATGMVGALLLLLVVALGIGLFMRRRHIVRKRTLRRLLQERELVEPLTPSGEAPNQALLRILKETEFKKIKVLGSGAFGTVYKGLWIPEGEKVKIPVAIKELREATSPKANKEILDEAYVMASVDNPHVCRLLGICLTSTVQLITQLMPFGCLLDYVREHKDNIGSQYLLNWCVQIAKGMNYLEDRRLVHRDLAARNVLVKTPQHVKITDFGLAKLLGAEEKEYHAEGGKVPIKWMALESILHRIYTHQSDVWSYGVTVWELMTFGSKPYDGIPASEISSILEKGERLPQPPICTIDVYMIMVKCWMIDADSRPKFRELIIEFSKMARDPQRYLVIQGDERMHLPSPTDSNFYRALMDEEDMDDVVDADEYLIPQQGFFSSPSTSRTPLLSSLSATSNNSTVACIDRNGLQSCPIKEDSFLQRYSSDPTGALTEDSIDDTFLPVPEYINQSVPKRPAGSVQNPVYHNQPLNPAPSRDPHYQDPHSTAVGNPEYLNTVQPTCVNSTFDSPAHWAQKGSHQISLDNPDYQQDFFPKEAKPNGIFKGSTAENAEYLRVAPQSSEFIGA
Sequence of HER2 (P04626 23-1255): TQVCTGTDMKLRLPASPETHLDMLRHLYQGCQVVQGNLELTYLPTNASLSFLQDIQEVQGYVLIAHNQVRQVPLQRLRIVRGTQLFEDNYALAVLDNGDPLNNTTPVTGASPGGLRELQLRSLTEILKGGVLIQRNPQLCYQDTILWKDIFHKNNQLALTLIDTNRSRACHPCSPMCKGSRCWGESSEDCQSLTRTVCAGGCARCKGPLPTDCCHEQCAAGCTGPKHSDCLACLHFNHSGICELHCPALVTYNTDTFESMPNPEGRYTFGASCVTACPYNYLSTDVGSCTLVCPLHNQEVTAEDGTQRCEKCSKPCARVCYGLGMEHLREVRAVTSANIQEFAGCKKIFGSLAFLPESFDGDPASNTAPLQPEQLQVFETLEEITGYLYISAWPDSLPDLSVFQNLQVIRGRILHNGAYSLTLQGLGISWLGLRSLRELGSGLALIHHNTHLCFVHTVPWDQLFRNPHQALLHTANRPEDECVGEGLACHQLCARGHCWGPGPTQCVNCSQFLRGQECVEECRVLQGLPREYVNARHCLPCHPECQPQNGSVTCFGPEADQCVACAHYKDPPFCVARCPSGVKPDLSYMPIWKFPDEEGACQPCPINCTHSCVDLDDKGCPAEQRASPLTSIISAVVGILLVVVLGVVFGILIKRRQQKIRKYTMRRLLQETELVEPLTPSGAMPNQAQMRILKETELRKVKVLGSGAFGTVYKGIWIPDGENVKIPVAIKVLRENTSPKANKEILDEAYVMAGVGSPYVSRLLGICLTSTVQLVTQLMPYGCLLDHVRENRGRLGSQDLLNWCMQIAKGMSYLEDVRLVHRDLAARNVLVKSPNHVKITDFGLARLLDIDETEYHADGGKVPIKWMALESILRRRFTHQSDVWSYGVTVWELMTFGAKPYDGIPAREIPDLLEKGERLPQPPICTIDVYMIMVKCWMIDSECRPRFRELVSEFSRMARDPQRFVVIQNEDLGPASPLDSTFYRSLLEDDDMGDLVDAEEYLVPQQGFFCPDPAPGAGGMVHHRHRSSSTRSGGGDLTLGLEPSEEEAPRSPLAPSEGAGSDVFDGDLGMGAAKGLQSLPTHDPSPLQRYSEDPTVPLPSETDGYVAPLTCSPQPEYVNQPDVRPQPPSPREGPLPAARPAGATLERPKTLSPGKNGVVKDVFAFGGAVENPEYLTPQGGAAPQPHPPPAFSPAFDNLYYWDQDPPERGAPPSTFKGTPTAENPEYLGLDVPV

Row | SMILES | inhibition at 10 µM (ACHN) | inhibition at 10 µM (T-47D) | GI50 [1] | CC50 [1] | TGI (subpanel average) [1] | inhibition at 10 µM (SF-539) | inhibition at 10 µM (COLO 205) | inhibition at 10 µM (HCT-15) | GI50 [2] | inhibition at 10 µM (SNB-19) | inhibition at 10 µM (MCF7) | inhibition at 10 µM (786-0 [3]) | inhibition at 10 µM (OVCAR-4) | inhibition at 10 µM (CCRF-CEM) | inhibition at 10 µM (HL-60(TB); Homo sapiens, one dose 10 µM) | inhibition at 10 µM (SW-620) | inhibition at 10 µM (RXF 393) | IC50 (HER2) | IC50 (EGFR) | inhibition at 10 µM (MDA-MB-468) | other results
1 | O=c1[nH]cc(F)c(=O)[nH]1 [Compound 5-Fu, 5-fluorouracil, reference compound] | 60.7% | 43.3% | 2820 nM | > 100000 nM | 68370 nM | > 100% | 59.8% | 73.5% | 14400 nM | 34.1% | 88.5% | 51.3% | 40.6% | 42.9% | 52.1% | 49.9% | 65.7% | – | – | – | CC50 [2]: > 100000 nM; TGI (subpanel average) [2]: 73700 nM
2 | CS(=O)(=O)c1ccc(C(=O)NN=Cc2cccc3ccccc23)cc1 [Compound 6, 4-(Methylsulfonyl)-N'-(naphthalen-1-ylmethylene)benzohydrazide] | < 10% | 14.7% | – | – | – | 10.7% | 14.3% | 50.2% | – | 20.2% | 55.1% | < 10% | < 10% | 22.4% | 62.5% | 63.8% | < 10% | 350 ± 10 nM | 260 ± 90 nM | 25.8% | inhibition at 10 µM (SK-MEL-28; [5]): 10.6%
3 | Cc1ccc(C=NNC(=O)c2ccc(S(C)(=O)=O)cc2)cc1 [Compound 9, N'-(4-Methylbenzylidene)-4-(methylsulfonyl)benzohydrazide] | < 10% | < 10% | – | – | – | < 10% | < 10% | 16.3% | – | < 10% | 21.4% | < 10% | < 10% | 20.8% | 24.3% | 15.2% | < 10% | 410 ± 10 nM | 770 ± 30 nM | 21.5% | inhibition at 10 µM (SK-MEL-28; [6]): < 10%
4 | CS(=O)(=O)c1ccc(C(=O)N/N=C/c2ccccc2O)cc1 [Compound 16] | 71.7% | 47.6% | – | – | – | 44.7% | 68.8% | 82% | – | 54.6% | 77.5% | 67% | 56.3% | 84.7% | 93.7% | 56.7% | 47% | 130 ± 40 nM | 200 ± 70 nM | 35.3% | inhibition at 10 µM (SK-MEL-28; [5]): 44.1%
5 | CCN(CC)c1ccc(/C=N/NC(=O)c2ccc(S(C)(=O)=O)cc2)c(O)c1 [Compound 20] | 82.9% | 70% | – | – | – | 96% | 91.4% | 71.5% | – | 68% | 91.2% | 84.6% | 65.3% | 93.1% | 100% | 67% | 71.5% | 70 ± 20 nM | 190 ± 10 nM | 98.8% | GI50 (ACHN; [7]): 117 nM; GI50 (T-47D; [7]): 390 nM; GI50 (SF-539; [7]): 244 nM; GI50 (COLO 205; [7]): 269 nM; GI50 (HCT-15; [7]): 92 nM; GI50 (SNB-19; [7]): 428 nM; GI50 (MCF7; [7]): 253 nM; GI50 (786-0 [3]; [7]): 182 nM; GI50 (OVCAR-4; [7]): 63 nM; GI50 (CCRF-CEM; [7]): 78 nM; Growth inhibition percentage (GI%) (HL-60(TB); HL-60(TB), one dose 10 µM): >100%; GI50 (HL-60(TB); Homo sapiens, HL-60(TB), five concentrations 0.01-100 µM): 164 nM; GI50 (SW-620; [7]): 387 nM; GI50 (MDA-MB-468; [7]): 203 nM; inhibition at 10 µM (SK-MEL-28; [6]): 72.9%; GI50 (SK-MEL-28; Homo sapiens, SK-MEL-28, five concentrations 0.01-100 µM): 340 nM; Growth inhibition percentage (GI%) (SK-MEL-28; SK-MEL-28, one dose 10 µM): 72.8%; GI50 (RXF 393; [7]): 271 nM
6 | CNC(=O)c1cc(Oc2ccc(NC(=O)Nc3ccc(Cl)c(C(F)(F)F)c3)cc2)ccn1 [Sorafenib, sorafenib] | – | – | 1910 nM | > 100000 nM | 42120 nM | – | – | – | 2330 nM | – | – | – | – | – | – | – | – | – | – | – | GI50 (M14): 1990 nM; GI50 (OVCAR-8): 3160 nM; GI50 (MOLT-4): 3160 nM; GI50 (MDA-MB-231/ATCC): 1260 nM; GI50 (UACC-257): 1990 nM; GI50 (U251): 1990 nM; CC50 [2]: 27800 nM; TGI (subpanel average) [2]: 7640 nM; GI50 (A549/ATCC): 3160 nM; GI50 (HT29): 1990 nM; GI50 (NCI-H23): 1990 nM; GI50 (786-0 [4]): 3160 nM; GI50 (HCC-2998): 3160 nM; GI50 (UO-31): 2510 nM
